Key:
[1] = biological target: Poly [ADP-ribose] polymerase 2 (Homo sapiens, UniProt Q9UGN5); assay: Inhibition of N-terminal his-tagged human PARP2 expressed in Escherichia coli Rosette2 (DE3)
[2] = biological target: Protein mono-ADP-ribosyltransferase PARP14 (Homo sapiens, UniProt Q460N5); assay: Inhibition of N-terminal his-tagged human PARP14 expressed in Escherichia coli Rosette2 (DE3)
[3] = tested on: HeLa; assay: Cytoprotective activity against human HeLa cells assessed as rescue of PARP10-induced cell death by measuring number of colonies treated for 8 to 10 days followed by compound replenishment for every 3 days by methylene blue staining based assay; format: functional
[4] = biological target: T1, Protein mono-ADP-ribosyltransferase PARP10 (Homo sapiens, UniProt Q53GL7); assay: Inhibition of C-terminal his-tagged human PARP10 expressed in Escherichia coli Rosette2 (DE3)
T1 sequence (Q53GL7 whole entry): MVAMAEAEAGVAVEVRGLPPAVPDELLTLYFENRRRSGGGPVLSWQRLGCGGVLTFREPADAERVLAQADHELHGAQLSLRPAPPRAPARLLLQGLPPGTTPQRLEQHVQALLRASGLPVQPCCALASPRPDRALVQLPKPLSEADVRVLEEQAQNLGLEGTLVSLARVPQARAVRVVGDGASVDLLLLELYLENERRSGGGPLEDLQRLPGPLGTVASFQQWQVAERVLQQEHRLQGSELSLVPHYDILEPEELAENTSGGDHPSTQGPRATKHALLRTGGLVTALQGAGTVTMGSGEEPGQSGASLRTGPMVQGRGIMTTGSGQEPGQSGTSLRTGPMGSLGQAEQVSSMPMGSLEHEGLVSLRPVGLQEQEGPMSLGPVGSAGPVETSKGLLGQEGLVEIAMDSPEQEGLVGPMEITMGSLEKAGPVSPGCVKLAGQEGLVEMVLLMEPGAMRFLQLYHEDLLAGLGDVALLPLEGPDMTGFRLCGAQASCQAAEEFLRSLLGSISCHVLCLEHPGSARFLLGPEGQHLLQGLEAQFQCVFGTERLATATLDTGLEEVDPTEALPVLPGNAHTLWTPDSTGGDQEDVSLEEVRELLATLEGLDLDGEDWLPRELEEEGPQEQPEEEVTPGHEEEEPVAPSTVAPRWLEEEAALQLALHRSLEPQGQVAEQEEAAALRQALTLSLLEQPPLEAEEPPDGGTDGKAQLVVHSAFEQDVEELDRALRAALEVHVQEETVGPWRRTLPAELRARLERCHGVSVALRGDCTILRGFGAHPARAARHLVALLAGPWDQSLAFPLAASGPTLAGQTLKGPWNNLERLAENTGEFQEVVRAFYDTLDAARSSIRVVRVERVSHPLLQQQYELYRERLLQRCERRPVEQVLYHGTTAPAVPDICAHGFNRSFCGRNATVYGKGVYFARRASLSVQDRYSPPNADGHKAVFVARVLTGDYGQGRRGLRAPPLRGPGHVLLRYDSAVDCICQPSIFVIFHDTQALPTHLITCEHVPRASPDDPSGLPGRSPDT

[5] = biological target: T2, Poly [ADP-ribose] polymerase tankyrase-2 (Homo sapiens, UniProt Q9H2K2); assay: Inhibition of N-terminal his-tagged human TNKS2 expressed in Escherichia coli Rosette2 (DE3)
T2 sequence (Q9H2K2 whole entry): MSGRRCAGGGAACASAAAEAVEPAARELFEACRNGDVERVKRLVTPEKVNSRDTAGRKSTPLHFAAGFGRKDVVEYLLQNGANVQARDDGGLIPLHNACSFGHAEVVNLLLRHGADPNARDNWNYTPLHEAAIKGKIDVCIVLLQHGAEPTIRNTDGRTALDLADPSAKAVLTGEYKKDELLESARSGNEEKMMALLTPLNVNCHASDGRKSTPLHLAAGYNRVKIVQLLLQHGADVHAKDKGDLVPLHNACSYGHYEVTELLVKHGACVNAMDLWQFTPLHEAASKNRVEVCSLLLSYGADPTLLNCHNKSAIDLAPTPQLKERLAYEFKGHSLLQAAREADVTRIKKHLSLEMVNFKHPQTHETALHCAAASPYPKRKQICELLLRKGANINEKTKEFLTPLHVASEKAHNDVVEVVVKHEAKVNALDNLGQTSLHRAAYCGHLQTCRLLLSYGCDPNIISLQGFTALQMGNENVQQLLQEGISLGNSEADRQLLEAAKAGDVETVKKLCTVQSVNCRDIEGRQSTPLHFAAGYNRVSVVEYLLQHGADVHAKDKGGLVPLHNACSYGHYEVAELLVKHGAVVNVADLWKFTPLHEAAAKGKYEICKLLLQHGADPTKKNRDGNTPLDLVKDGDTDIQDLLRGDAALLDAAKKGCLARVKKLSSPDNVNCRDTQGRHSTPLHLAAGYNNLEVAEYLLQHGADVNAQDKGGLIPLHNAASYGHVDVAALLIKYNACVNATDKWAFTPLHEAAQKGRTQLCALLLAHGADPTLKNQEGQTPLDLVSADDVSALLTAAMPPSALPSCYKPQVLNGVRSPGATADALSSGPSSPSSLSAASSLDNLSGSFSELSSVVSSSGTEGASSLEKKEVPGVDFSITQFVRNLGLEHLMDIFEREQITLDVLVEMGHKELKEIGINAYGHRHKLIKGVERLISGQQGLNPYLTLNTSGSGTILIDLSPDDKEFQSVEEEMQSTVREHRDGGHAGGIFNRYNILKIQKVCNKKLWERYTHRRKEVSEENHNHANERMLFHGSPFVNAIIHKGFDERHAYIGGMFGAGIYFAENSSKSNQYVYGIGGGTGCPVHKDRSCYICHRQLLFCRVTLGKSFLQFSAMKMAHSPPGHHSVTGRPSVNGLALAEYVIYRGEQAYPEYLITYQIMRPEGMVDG

[6] = biological target: Poly [ADP-ribose] polymerase 1 (Homo sapiens, UniProt P09874); assay: Inhibition of N-terminal his-tagged human PARP1 expressed in Escherichia coli Rosette2 (DE3)
Sequence of Poly [ADP-ribose] polymerase 1 (P09874 whole entry): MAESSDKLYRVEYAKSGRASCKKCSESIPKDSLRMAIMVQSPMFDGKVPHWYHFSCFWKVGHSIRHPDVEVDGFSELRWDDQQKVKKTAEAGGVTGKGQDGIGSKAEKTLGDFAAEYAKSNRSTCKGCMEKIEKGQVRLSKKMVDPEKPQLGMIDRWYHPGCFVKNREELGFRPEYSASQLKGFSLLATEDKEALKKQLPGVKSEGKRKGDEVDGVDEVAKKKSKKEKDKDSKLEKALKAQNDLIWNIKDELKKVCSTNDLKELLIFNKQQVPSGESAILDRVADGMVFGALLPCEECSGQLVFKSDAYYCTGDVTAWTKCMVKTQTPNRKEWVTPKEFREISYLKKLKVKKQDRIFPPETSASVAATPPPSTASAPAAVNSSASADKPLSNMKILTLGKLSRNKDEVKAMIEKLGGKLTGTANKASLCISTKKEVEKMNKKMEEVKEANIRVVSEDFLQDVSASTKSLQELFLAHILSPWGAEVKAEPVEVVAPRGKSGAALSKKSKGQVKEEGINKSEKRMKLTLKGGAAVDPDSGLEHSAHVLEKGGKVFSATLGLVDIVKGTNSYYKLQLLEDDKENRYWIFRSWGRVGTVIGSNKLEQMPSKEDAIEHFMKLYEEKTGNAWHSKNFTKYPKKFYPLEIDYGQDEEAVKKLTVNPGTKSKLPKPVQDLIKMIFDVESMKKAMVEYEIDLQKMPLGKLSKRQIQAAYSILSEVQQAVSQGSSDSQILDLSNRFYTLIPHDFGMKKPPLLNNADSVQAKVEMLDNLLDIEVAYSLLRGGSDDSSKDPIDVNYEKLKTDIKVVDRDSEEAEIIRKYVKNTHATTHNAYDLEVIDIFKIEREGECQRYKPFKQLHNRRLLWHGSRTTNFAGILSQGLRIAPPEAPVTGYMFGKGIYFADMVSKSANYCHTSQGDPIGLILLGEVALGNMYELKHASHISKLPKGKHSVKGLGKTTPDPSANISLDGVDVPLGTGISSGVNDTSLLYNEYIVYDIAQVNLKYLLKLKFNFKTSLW

Sequence of Poly [ADP-ribose] polymerase 2 (Q9UGN5 whole entry): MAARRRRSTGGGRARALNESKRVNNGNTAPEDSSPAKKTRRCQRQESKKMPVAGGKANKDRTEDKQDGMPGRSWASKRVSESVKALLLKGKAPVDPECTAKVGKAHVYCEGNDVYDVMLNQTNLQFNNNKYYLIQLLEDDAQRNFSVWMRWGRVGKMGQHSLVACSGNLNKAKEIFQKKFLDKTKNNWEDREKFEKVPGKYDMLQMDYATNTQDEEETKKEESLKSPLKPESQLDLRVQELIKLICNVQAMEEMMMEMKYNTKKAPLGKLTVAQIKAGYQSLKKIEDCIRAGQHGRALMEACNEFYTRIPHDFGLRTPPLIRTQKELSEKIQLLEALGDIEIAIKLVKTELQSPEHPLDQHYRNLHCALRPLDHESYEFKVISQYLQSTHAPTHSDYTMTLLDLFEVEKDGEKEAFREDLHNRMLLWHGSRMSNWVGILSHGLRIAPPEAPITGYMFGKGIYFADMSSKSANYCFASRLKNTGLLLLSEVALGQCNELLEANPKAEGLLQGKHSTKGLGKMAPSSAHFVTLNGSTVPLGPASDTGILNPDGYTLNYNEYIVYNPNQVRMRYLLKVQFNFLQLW
Sequence of Protein mono-ADP-ribosyltransferase PARP14 (Q460N5 whole entry): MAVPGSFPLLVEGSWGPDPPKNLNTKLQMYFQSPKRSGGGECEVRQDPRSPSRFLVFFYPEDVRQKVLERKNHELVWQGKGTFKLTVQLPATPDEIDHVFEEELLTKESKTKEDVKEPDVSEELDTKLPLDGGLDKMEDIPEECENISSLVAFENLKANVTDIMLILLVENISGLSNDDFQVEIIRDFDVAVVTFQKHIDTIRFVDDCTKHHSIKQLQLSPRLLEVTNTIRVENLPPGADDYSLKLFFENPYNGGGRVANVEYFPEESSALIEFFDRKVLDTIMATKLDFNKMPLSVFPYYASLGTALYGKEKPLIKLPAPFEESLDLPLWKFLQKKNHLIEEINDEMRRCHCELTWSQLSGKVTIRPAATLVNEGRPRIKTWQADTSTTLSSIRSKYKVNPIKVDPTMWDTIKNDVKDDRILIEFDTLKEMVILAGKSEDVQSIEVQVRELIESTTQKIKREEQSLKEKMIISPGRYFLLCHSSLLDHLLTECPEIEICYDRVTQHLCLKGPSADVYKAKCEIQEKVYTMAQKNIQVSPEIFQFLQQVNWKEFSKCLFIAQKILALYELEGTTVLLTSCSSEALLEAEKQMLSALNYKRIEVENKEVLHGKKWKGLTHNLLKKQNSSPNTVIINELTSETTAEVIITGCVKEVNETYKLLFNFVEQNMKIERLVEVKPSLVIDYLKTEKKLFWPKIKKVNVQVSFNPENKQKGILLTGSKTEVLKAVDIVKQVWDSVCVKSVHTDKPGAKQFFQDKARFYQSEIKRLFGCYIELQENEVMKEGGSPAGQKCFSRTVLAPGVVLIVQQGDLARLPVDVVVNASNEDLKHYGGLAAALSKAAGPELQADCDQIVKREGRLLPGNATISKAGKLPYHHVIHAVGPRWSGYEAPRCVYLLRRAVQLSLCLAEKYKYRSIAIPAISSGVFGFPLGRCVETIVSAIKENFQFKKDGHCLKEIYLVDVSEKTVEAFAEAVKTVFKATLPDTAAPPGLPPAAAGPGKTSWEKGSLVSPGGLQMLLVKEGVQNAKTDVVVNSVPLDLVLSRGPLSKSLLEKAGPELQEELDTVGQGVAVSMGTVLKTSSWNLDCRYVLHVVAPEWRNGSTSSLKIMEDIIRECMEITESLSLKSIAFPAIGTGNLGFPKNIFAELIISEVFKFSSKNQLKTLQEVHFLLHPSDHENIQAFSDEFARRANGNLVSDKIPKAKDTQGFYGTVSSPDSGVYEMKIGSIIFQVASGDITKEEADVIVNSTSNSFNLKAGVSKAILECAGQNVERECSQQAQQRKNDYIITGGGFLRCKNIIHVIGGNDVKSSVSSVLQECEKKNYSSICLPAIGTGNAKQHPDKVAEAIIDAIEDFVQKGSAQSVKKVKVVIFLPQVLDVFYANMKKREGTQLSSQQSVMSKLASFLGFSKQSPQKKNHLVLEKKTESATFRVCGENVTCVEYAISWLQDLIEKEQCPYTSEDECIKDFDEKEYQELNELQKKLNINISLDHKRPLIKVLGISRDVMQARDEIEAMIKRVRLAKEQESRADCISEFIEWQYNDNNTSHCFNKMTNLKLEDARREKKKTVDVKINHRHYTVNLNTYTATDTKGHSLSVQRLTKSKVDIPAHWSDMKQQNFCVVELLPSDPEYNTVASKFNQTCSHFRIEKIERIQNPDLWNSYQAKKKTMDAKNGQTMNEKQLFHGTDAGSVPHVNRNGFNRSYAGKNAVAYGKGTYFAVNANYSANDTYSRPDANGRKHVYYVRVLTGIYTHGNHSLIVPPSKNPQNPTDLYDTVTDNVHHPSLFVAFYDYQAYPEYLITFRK

| Structure (SMILES) | IC50 [1] [µM] | IC50 [2] [µM] | IC50 [3] [nM] | IC50 [4] [nM] | IC50 [5] [µM] | IC50 [6] [µM] |
| --- | --- | --- | --- | --- | --- | --- |
| NC(=O)c1ccc(Oc2cccc(C(N)=O)c2)cc1 | 1.7 | 41 | 1800 | 480 | 6.5 | > 100 |
| N#Cc1ccc(Oc2ccc(C(N)=O)cc2)cc1 | 27 | > 100 | 1700 | 3640 | > 100 | > 100 |

— ChEMBL document CHEMBL5120882, “Medicinal Chemistry Perspective on Targeting Mono-ADP-Ribosylating PARPs with Small Molecules” (J Med Chem, 2022)
